Data: the NIST ThermoML archive (doi:10.1016/j.tca.2005.04.030)
± gives the expanded uncertainty stated by the source.

Experiments:
[1] = xn = mol fraction of the nth substance listed; details: 298 K, 101 kPa, Liquid; for speed of sound: Anton Paar DSA 48; for mass density: Vibrating tube method
[2] = refractive index (Na D-line) (dimensionless); xn = mol fraction of the nth substance listed; details: 298 K, 101 kPa, Liquid, ATAGO RX-1000

With `CCCCOC(C)(C)C` [butane, 1-(1,1-dimethylethoxy)-] + CO as the compound, how does the speed of sound ([1]; x1 = 0.0406) read?
The speed of sound was 1103 ± 1 m/s.

And the speed of sound ([1]; x1 = 0.0518)?
The speed of sound was 1104 ± 1 m/s.

What about the speed of sound ([1]; x1 = 0.0974) of the same compound?
Its speed of sound is 1103 ± 1 m/s.

What about the speed of sound ([1]; x1 = 0.0984) of the same compound?
The speed of sound was 1104 ± 1 m/s.

And the speed of sound ([1]; x1 = 0.1493)?
The speed of sound was 1105 ± 1 m/s.

What about the speed of sound ([1]; x1 = 0.198) of the same compound?
The speed of sound was 1107 ± 1 m/s.

What about the speed of sound ([1]; x1 = 0.2051) of the same compound?
Its speed of sound is 1107 ± 1 m/s.

And the speed of sound ([1]; x1 = 0.2448)?
The speed of sound was 1108 ± 1 m/s.

And the speed of sound ([1]; x1 = 0.2974)?
The speed of sound was 1109 ± 1 m/s.

And the speed of sound ([1]; x1 = 0.3373)?
The speed of sound was 1109 ± 1 m/s.

What about the speed of sound ([1]; x1 = 0.3581) of the same compound?
The speed of sound was 1109 ± 1 m/s.

And the speed of sound ([1]; x1 = 0.3783)?
The speed of sound was 1109 ± 1 m/s.

What about the speed of sound ([1]; x1 = 0.3922) of the same compound?
The speed of sound was 1111 ± 1 m/s.

What about the speed of sound ([1]; x1 = 0.4633) of the same compound?
Its speed of sound is 1111 ± 1 m/s.

And the speed of sound ([1]; x1 = 0.4954)?
The speed of sound was 1113 ± 1 m/s.

What about the speed of sound ([1]; x1 = 0.5003) of the same compound?
Its speed of sound is 1111 ± 1 m/s.

And the speed of sound ([1]; x1 = 0.5598)?
Its speed of sound is 1112 ± 1 m/s.

And the speed of sound ([1]; x1 = 0.5955)?
Its speed of sound is 1114 ± 1 m/s.

And the speed of sound ([1]; x1 = 0.6138)?
The speed of sound was 1113 ± 1 m/s.

What about the speed of sound ([1]; x1 = 0.6463) of the same compound?
Its speed of sound is 1113 ± 1 m/s.

And the speed of sound ([1]; x1 = 0.6737)?
The speed of sound was 1114 ± 1 m/s.

What about the speed of sound ([1]; x1 = 0.6923) of the same compound?
The speed of sound was 1114 ± 1 m/s.

And the speed of sound ([1]; x1 = 0.721)?
The speed of sound was 1114 ± 1 m/s.

And the speed of sound ([1]; x1 = 0.7904)?
Its speed of sound is 1114 ± 1 m/s.

And the speed of sound ([1]; x1 = 0.7934)?
The speed of sound was 1114 ± 1 m/s.

What about the speed of sound ([1]; x1 = 0.8479) of the same compound?
Its speed of sound is 1114 ± 1 m/s.

What about the speed of sound ([1]; x1 = 0.8631) of the same compound?
Its speed of sound is 1114 ± 1 m/s.

And the speed of sound ([1]; x1 = 0.8964)?
The speed of sound was 1115 ± 1 m/s.

And the speed of sound ([1]; x1 = 0.9255)?
The speed of sound was 1114 ± 1 m/s.

What about the mass density ([1]; x1 = 0.0406) of the same compound?
Its mass density is 783.42 ± 0.22 kg/m3.

And the mass density ([1]; x1 = 0.0518)?
The mass density was 782.76 ± 0.22 kg/m3.

What about the mass density ([1]; x1 = 0.0974) of the same compound?
The mass density was 780.08 ± 0.22 kg/m3.

And the mass density ([1]; x1 = 0.0984)?
Its mass density is 779.91 ± 0.22 kg/m3.

And the mass density ([1]; x1 = 0.1493)?
The mass density was 777.55 ± 0.21 kg/m3.

And the mass density ([1]; x1 = 0.198)?
The mass density was 775.42 ± 0.21 kg/m3.

And the mass density ([1]; x1 = 0.2051)?
Its mass density is 775.26 ± 0.21 kg/m3.

And the mass density ([1]; x1 = 0.2448)?
The mass density was 773.83 ± 0.2 kg/m3.

What about the mass density ([1]; x1 = 0.2974) of the same compound?
The mass density was 772.2 ± 0.2 kg/m3.

And the mass density ([1]; x1 = 0.3373)?
Its mass density is 770.98 ± 0.19 kg/m3.

And the mass density ([1]; x1 = 0.3581)?
The mass density was 770.41 ± 0.19 kg/m3.

And the mass density ([1]; x1 = 0.3783)?
The mass density was 769.88 ± 0.19 kg/m3.

What about the mass density ([1]; x1 = 0.3922) of the same compound?
Its mass density is 769.7 ± 0.19 kg/m3.

What about the mass density ([1]; x1 = 0.4633) of the same compound?
The mass density was 767.85 ± 0.18 kg/m3.

And the mass density ([1]; x1 = 0.4954)?
Its mass density is 767.15 ± 0.18 kg/m3.

What about the mass density ([1]; x1 = 0.5003) of the same compound?
Its mass density is 767.05 ± 0.18 kg/m3.

And the mass density ([1]; x1 = 0.5598)?
Its mass density is 765.86 ± 0.17 kg/m3.

What about the mass density ([1]; x1 = 0.5955) of the same compound?
Its mass density is 765.21 ± 0.16 kg/m3.

And the mass density ([1]; x1 = 0.6138)?
Its mass density is 764.85 ± 0.16 kg/m3.

And the mass density ([1]; x1 = 0.6463)?
Its mass density is 764.27 ± 0.16 kg/m3.

And the mass density ([1]; x1 = 0.6737)?
The mass density was 763.79 ± 0.16 kg/m3.

And the mass density ([1]; x1 = 0.6923)?
The mass density was 763.48 ± 0.15 kg/m3.

And the mass density ([1]; x1 = 0.721)?
Its mass density is 762.99 ± 0.15 kg/m3.

What about the mass density ([1]; x1 = 0.7904) of the same compound?
The mass density was 761.8 ± 0.14 kg/m3.

And the mass density ([1]; x1 = 0.7934)?
The mass density was 761.75 ± 0.14 kg/m3.

And the mass density ([1]; x1 = 0.8479)?
Its mass density is 760.78 ± 0.14 kg/m3.

And the mass density ([1]; x1 = 0.8631)?
The mass density was 760.5 ± 0.14 kg/m3.

What about the mass density ([1]; x1 = 0.8964) of the same compound?
Its mass density is 759.86 ± 0.14 kg/m3.

What about the mass density ([1]; x1 = 0.9255) of the same compound?
Its mass density is 759.26 ± 0.14 kg/m3.

What about the refractive index ([2]; x1 = 0.0406) of the same compound?
The refractive index was 1.33673 ± 0.00011.

What about the refractive index ([2]; x1 = 0.0518) of the same compound?
Its refractive index is 1.33916 ± 0.00011.

And the refractive index ([2]; x1 = 0.0974)?
Its refractive index is 1.34774 ± 0.0001.

What about the refractive index ([2]; x1 = 0.0984) of the same compound?
Its refractive index is 1.34786 ± 0.0001.

And the refractive index ([2]; x1 = 0.1493)?
The refractive index was 1.35545 ± 0.0001.

What about the refractive index ([2]; x1 = 0.198) of the same compound?
Its refractive index is 1.36125 ± 0.0001.

And the refractive index ([2]; x1 = 0.2051)?
Its refractive index is 1.36198 ± 0.0001.

What about the refractive index ([2]; x1 = 0.2448) of the same compound?
The refractive index was 1.3658 ± 9e-05.

And the refractive index ([2]; x1 = 0.2974)?
The refractive index was 1.37001 ± 9e-05.

And the refractive index ([2]; x1 = 0.3373)?
The refractive index was 1.37281 ± 9e-05.

And the refractive index ([2]; x1 = 0.3581)?
Its refractive index is 1.37411 ± 8e-05.

What about the refractive index ([2]; x1 = 0.3783) of the same compound?
Its refractive index is 1.37529 ± 8e-05.

What about the refractive index ([2]; x1 = 0.3922) of the same compound?
Its refractive index is 1.37605 ± 8e-05.

And the refractive index ([2]; x1 = 0.4633)?
The refractive index was 1.37952 ± 8e-05.

What about the refractive index ([2]; x1 = 0.4954) of the same compound?
Its refractive index is 1.38087 ± 7e-05.

And the refractive index ([2]; x1 = 0.5003)?
The refractive index was 1.38106 ± 7e-05.

And the refractive index ([2]; x1 = 0.5598)?
Its refractive index is 1.38325 ± 7e-05.

What about the refractive index ([2]; x1 = 0.5955) of the same compound?
Its refractive index is 1.3845 ± 7e-05.

What about the refractive index ([2]; x1 = 0.6138) of the same compound?
The refractive index was 1.38496 ± 7e-05.

And the refractive index ([2]; x1 = 0.6463)?
Its refractive index is 1.38588 ± 6e-05.

What about the refractive index ([2]; x1 = 0.6737) of the same compound?
Its refractive index is 1.3866 ± 6e-05.

What about the refractive index ([2]; x1 = 0.6923) of the same compound?
The refractive index was 1.38706 ± 6e-05.

And the refractive index ([2]; x1 = 0.721)?
The refractive index was 1.38773 ± 6e-05.

What about the refractive index ([2]; x1 = 0.7904) of the same compound?
Its refractive index is 1.38914 ± 6e-05.

And the refractive index ([2]; x1 = 0.7934)?
The refractive index was 1.38918 ± 6e-05.

And the refractive index ([2]; x1 = 0.8479)?
The refractive index was 1.3901 ± 5e-05.

And the refractive index ([2]; x1 = 0.8631)?
Its refractive index is 1.39032 ± 5e-05.

And the refractive index ([2]; x1 = 0.8964)?
The refractive index was 1.3907 ± 5e-05.

And the refractive index ([2]; x1 = 0.9255)?
Its refractive index is 1.39109 ± 5e-05.
